US20130039857A1, “METHODS OF SUPPRESSING CANCER, INCREASING WEIGHT LOSS AND/OR INCREASING INSULIN SENSITIVITY” (priority 2010, published 2013)

Legend:
[1] = test system: ACC S79 (ACC1) and S221 (ACC2) phosphorylation; test: Western blot of phospho-ACC in white gastrocnemius; assay type: in vivo, mouse; conditions: SU6656 4 mg/kg, 3 hr after injection, vs vehicle
Description: (§1) Animals were injected with vehicle or SU6656 (4 mg/kg) at the beginning of the light cycle. They were anesthetized and sacrificed by cervical dislocation 3 hr after the injection. Tissues were rapidly freeze clamped in liquid nitrogen and stored at […]. Protein preparation and blotting were performed as described below. Tissues were ground in liquid nitrogen and homogenized in a buffer containing 50 mM Tris (pH 7.4), 1% glycerol, and 1% Triton X-100 supplemented with protease inhibitor (Complete Mini, Roche Pharmaceuticals, Nutley, N. J.). Homogenates were centrifuged for 30 min at 14,000 rpm at 4° C., and supernatants were collected. Protein concentration was determined with the BCA™ Protein Assay (Thermo Scientific, Rockford, Ill.).
(§2) Protein samples (40 μg) were separated on 8% or 10% reducing polyacrylamide gels and transferred onto Immobilon-P polyvinylidene difluoride membranes. […] Alternatively, immunoblots were incubated with IRDye800CW goat antimouse (H+L) or IRDye680 goat anti-rabbit (H+L) secondary antibodies, and signal was detected with the Odyssey® Infrared Imaging System (Li-COR Biotechnology, Lincoln, Nebr.).

Wild-type mice = test: Whole-body indirect calorimetry, wild-type mice; assay type: in vivo, mouse
Excerpt: (§3) Eight- to ten-week-old male C57BL6/J, pp59^fyn null mice and their controls were obtained from The Jackson Laboratory (Bar Harbor, Me.) and housed in a facility equipped with a 12 hr light/dark cycle. Animals were fed ad libitum a standard chow diet (Research Diets, New Brunswick, N. J.) containing 75.9% (Kcal) carbohydrates, 14.7% protein, and 9.4% fat. All studies were approved by and performed in compliance with the guidelines of the Yeshiva University Institutional Animal Care and Use Committee (IACUC).
(§4) Oxygen and carbon dioxide consumption were simultaneously determined by Oxymax open-circuit indirect calorimetry system (eight-cage system) (Columbus Instruments). Animals were allowed to acclimatize for two complete light and dark cycles (48 hr), and SU6656 (2-oxo-3-(4,5,6,7-tetrahydro-1H-indol-2-ylmethylene)-2,3-dihydro-1H-indole-5-sulfonic acid dimethylamide) injections were performed at the beginning of the light cycle the following day. Measurements were subsequently taken 12 hr following the injection. Data were analyzed as the average of 1 hr measurements for each mouse. Instrument settings were as follows: gas flow rate, 0.6 1/min; sample flow rate, 0.5 1/min; settle time, 120 s; measure time, 60 s.
Loss of Fyn kinase protein in the conventional Fyn knockout mice leads to increased lipid utilization and energy expenditure, particularly in the fasting/resting state (Bastie et al., 2007). To examine the effects of acute Fyn inhibition, the in vivo effects of the pharmacological selective Src family kinase inhibitor SU6656 was investigated. Wild-type mice were placed into metabolic chambers and allowed to acclimatize for 48 hr. Intraperitoneal injection of SU6656 or vehicle was performed at the beginning of the light cycle (fasting/resting state), and the respiratory quotient (RQ), oxygen consumption (VO2), energy expenditure (EE), and physical activity were monitored for the following 12 hr. […] Oxygen consumption and energy expenditure were similar in both groups before the injection and were decreased during the light period as the animals were resting with reduced basal metabolism.

[2] = test system: LKB1 subcellular localization in C2C12 muscle cell line; test: GFP-LKB1 subcellular localization in C2C12 myotubes; assay type: cell-based; parameters: dose or concentration left out as unconfirmed; conditions: C2C12 myotubes transfected with pEGFP-LKB1
Description: FIGS. 4A-4F. Fyn Kinase Activity Regulates LKB1 Subcellular Distribution. (4A) C2C12 myotubes were transfected with pEGFP-LKB1 and incubated with vehicle or SU6656 ([…]) for 2 hr. Cells were fixed and mounted with proQ diamond with DAPI solution. (4B) Shown is percentage of cells with pEGFPLKB1 signal detected in the cytoplasm. (4C) C2C12 myotubes were cotransfected with pEGFP-LKB1 and pcDNA3-Fyn-KD or pcDNA3-Fyn-CA. Cells were fixed and incubated with the mouse Fyn monoclonal antibody. Immunofluorescence was performed using the Alexa Fluor 594 Anti-mouse IgG. (4D) Percentage of C2C12 cells with pEGFP-LKB1 signal detected in the cytoplasm. Data are representative of n=5 experiments. (4E) Fully differentiated 3T3L1 adipocytes were cotransfected with pcDNA3-LKB1 and pcDNA3-Fyn-KD or pcDNA3-Fyn-CA. […] (4F) Percentage of 3T3L1 cells with LKB1 signal detected in the cytoplasm. […]
The ratio of cytosolic and nuclear LKB1 was quantified using the Image J software (National Institutes of Health). […]
C2C12 myotubes were cotransfected with 50 μg pEGFP-C2-LKB1 or pcDNA3-Flag-LKB1 or pcDNA3-Flag-LKB1 mutants and 200 μg of the indicated pcDNA3-Fyn constructs. […] Cells were imaged using a confocal fluorescence microscope (TCS SP5 confocal; Leica Microsystems). […]

[3] = test system: AMPK α subunit T172 phosphorylation; test: Western blot of phospho-T172 AMPK in white gastrocnemius; assay type: in vivo, mouse; conditions: SU6656 4 mg/kg, 3 hr after injection, vs vehicle
Description: as §1, §2

Fyn kinase = Fyn kinase (Homo sapiens, UniProt P06241); parameters: dose or concentration left out as unconfirmed; conditions: cited from earlier work
[4] = test system: red soleus and white gastrocnemius muscles; test: Fatty acid oxidation in isolated muscles (14C-palmitate to 14CO2); assay type: in vivo, mouse; conditions: relative to vehicle treated controls
Description: Animals received a single intraperitoneal injection of SU6656 or vehicle in the morning. Mice were sacrificed by cervical dislocation 3 hr after the injection. Skeletal muscles (red soleus and white gastrocnemius) were rapidly removed and preincubated for 10 min in oxygenated (95% O2, 5% CO2) Earle's solution (Invitrogen, Carlsbad, Calif.) supplemented with 5 mMD-glucose, 250 μM palmitate, and 0.5% BSA plus either 10 μM SU6656 or an equal volume of DMSO. Tissues were incubated for 45 min in the same buffer containing […] palmitate containing 1 μCi/ml [1-^14C] palmitate tracer (Amersham, Piscataway, N. J.) bound to 0.5% BSA. Incubations were carried out under an atmosphere of 95% O2/5% CO2 at 30° C. in glass vials (Kontes, Vineland, N.J.) equipped with a center well filled with 200 μl of 2N NaOH (trapping agent). At the end of the incubation, perchloric acid was added through the cap to a concentration of […], and vials were incubated for 3 hr at 30° C. with moderate shaking. The ^14CO2 produced was determined by scintillation counting of NaOH using the UniScintBD scintillation liquid (National Diagnostics, Atlanta, Ga.).
As mice generally consume 80% of their calories during the dark cycle and have a limited food intake during the light cycle, they undergo a diurnal pattern of weight gain and loss as shown by the decreased body mass at T=12 hr in the vehicle-treated mice. […]

LKB1 = test: Endogenous LKB1 immunofluorescence in skeletal muscle in vivo; parameters: species or system mouse; conditions: wild-type mice treated with SU6656
[5] = Total body mass and magnetic resonance imaging (fat and lean mass), wild-type mice; assay type: in vivo, mouse
Description: Total body mass (g) was recorded before (T=0) and 12 hr (T=12 hr) after the SU6656 injection. To determine fat and lean mass, animals were placed in a clear plastic holder without anesthesia or sedation and inserted into the EchoMRI-3-in-1™ System from Echo Medical Systems (Houston, Tex., USA). Total body fat and lean mass were measured before (T=0) and after (T=12 hr) after the injection.
As mice generally consume 80% of their calories during the dark cycle and have a limited food intake during the light cycle, they undergo a diurnal pattern of weight gain and loss as shown by the decreased body mass at T=12 hr in the vehicle-treated mice. […] To determine whether the lowered RQ in the mice treated with SU6656 was directly due to increased skeletal muscle fatty acid oxidation, red soleus and white gastrocnemius muscles were isolated 3 hr following the vehicle or SU6656 injection and incubated with ^14C-palmitate. The oxidation of ^14C-palmitate to ^14CO2 was increased 25% and 33%, respectively, in the soleus and the gastrocnemius of the SU6656-treated mice relative to vehicle treated controls (FIGS. 3A and 3B). The SU6656-stimulated increase in fatty acid oxidation occurred concomitantly, with an approximate 3-fold increased AMPK α subunit T172 phosphorylation and increased ACC S79 (ACC1) and S221 (ACC2) phosphorylation levels (FIGS. 3C and 3D).

Fyn knockout mice = test: Whole-body indirect calorimetry and body mass, Fyn knockout mice; assay type: in vivo, mouse
Excerpt: as §3, §4
To address this issue, the metabolic effect of SU6656 on wild type versus Fyn knockout mice was investigated. […]

[6] = SU6656 4 mg/kg intraperitoneal, light period, 12 hr following injection

Fyn kinase, sequence (P06241 1-534 isoform P06241-2): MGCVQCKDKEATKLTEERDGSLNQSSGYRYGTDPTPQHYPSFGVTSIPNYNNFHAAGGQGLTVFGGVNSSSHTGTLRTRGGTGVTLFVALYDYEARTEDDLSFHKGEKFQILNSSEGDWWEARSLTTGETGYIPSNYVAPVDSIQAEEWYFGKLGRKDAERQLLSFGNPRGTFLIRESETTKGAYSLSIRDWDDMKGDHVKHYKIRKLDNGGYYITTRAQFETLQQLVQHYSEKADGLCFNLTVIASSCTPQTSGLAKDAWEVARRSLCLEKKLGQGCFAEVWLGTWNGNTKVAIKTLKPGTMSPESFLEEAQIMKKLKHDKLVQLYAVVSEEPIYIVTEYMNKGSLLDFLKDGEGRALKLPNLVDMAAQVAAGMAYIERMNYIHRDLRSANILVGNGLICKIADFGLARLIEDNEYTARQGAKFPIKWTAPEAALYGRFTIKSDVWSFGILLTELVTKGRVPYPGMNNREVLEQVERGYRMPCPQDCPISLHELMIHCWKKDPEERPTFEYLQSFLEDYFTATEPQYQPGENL

## CN(C)S(=O)(=O)c1ccc2c(c1)C(=Cc1cc3c([nH]1)CCCC3)C(=O)N2 [SU6656, 2-oxo-3-(4,5,6,7-tetrahydro-1H-indol-2-ylmethylene)-2,3-dihydro-1H-indole-5-sulfonic acid dimethylamide]
[1]
  ACC S79 (ACC1) and S221 (ACC2) phosphorylation levels: increased
Wild-type mice; SU6656 4 mg/kg intraperitoneal at beginning of light cycle, vs vehicle, particularly first 3 hr after injection
  decrease of respiratory quotient (RQ): more pronounced
Wild-type mice; [6]
  energy expenditure (EE) elevation vs vehicle: 14%
  oxygen consumption (VO2) elevation vs vehicle: 14%
Wild-type mice; SU6656 4 mg/kg, dark or light cycle
  physical activity: without any alteration
Wild-type mice; three-month-old wild-type mice, SU6656 vs vehicle, 12 hr following injection
  respiratory quotient (RQ), wild-type controls of Fyn knockout mice: lower RQ
[2]
  cells with redistribution of LKB1 into the cytoplasm: approximately 65%
[3]
  increased AMPK α subunit T172 phosphorylation: ~3 fold
Fyn kinase
  Fyn kinase activity: sufficient to inactivate
[4]; red soleus isolated 3 hr after injection
  increase in oxidation of 14C-palmitate to 14CO2, soleus: 25%
[4]; white gastrocnemius isolated 3 hr after injection
  increase in oxidation of 14C-palmitate to 14CO2, gastrocnemius: 33%
LKB1
  LKB1 signal in the cytoplasm of muscle cells: increased LKB1 signal
[5]; 12 hr after SU6656 injection
  total weight loss greater than vehicle-treated group: 40%
[5]; T=12 hr, SU6656-treated vs vehicle-injected control animals
  fat mass: significantly reduced
[5]; T=12 hr, vehicle vs SU6656-injected mice
  lean mass: no significant difference
Fyn knockout mice; after SU6656 treatment
  body mass or physical activity in Fyn null mice: no alterations
Fyn knockout mice; three-month-old Fyn knockout mice, SU6656 vs vehicle
  rate of change or RQ level in Fyn knockout mice: no significant effect
